In US10273235B2, “Compositions and methods for inhibiting β-lactamase” (LegoChem Biosciences, Inc., priority 2015, dated 2019):
Structures can show the parent of a compound that is named as a salt.

Key:
[1] = Mouse pharmacokinetics; type: in vivo, ICR mouse; settings: IV, 50 mg/kg, plasma; for AUC(0-inf) / Cmax / Tmax / clearance / half-life / Vd: ICR; for Vd: read-out: Vss
Procedure: The pharmacokinetics values were evaluated in a mouse model. The test compound (50 mg/kg) was injected into the tail vein of 8 week old ICR mouse, weighing approximately 26-30 g. […] Lab conditions were temperature of 22±3° C. and humidity of 50±20%.

[2] = tested on: P. aeruginosa ATCC27853; assay: BLI potentiation MIC (broth microdilution), P. aeruginosa ATCC27853 (PoxB, AmpC); type: cell-based; settings: incubation 19 h; for MIC of Meropenem with BLI: BLI fixed 4 ug/ml
Procedure: (§1) MIC90 (μg/mL) is the lowest concentration of an antibiotic that will inhibit the visible growth of 90% of microorganisms after incubation as compared with a control group to which the antibiotic is not treated.
(§2) MIC values were measured by the broth microdilution method developed by the Clinical and Laboratory Standards Institute (CLSI) (see CLSI M07-A9, Methods for Dilution Antimicrobial Susceptibility Test for Bacteria that Grow Aerobically; Approved Standard-Ninth Edition (2012): CLSI, Villanova, Pa.). The in vitro antibacterial activity was measured with respect to the following 9 clinical isolates: P. aeruginosa (3 strains); K. pneumoniae (6 strains). The in vitro antibacterial activity of selected compounds was measured with respect to the following 15 clinical isolates: K. pneumoniae (15 strains).

[3] = tested on: K. pneumoniae 5576; assay: BLI potentiation MIC, K. pneumoniae 5576 (SHV-11, CMY-2, DHA-1, TEM-1); type: cell-based; settings: Klebsiella pneumoniae, 5576, 19 h, read-out: MIC of Ceftazidime alone, no BLI; incubation 19 h
Procedure: as §1, §2

[4] = tested on: K. pneumoniae ATCC700603; assay: BLI potentiation MIC, K. pneumoniae ATCC700603 (SHV-3); type: cell-based; settings: Klebsiella pneumoniae, ATCC700603, 19 h, read-out: MIC of Ceftazidime alone, no BLI; incubation 19 h
Procedure: as §1, §2

[5] = tested on: K. pneumoniae 4006; assay: BLI potentiation MIC, K. pneumoniae 4006 (SHV-12, CTX-M-15, TEM-1, OXA-9); type: cell-based; settings: Klebsiella pneumoniae, 4006, 19 h, read-out: MIC of Ceftazidime alone, no BLI; incubation 19 h
Procedure: as §1, §2

[6] = tested on: K. pneumoniae 3784; assay: BLI potentiation MIC, K. pneumoniae 3784 (SHV-11, SHV-12, DHA-1); type: cell-based; settings: incubation 19 h; for MIC of Meropenem with BLI: BLI fixed 4 ug/ml
Procedure: as §1, §2

[7] = tested on: K. pneumoniae 4248; assay: BLI potentiation MIC, K. pneumoniae 4248 (SHV-11, CTX-M-15, TEM-1, OXA-1); type: cell-based; settings: BLI fixed 4 ug/ml; incubation 19 h
Procedure: as §1, §2

[8] = tested on: P. aeruginosa ARC3506; assay: BLI potentiation MIC, P. aeruginosa ARC3506 (VEB-1, OXA-10, OprD−, AmpC); type: cell-based; settings: BLI fixed 4 ug/ml; incubation 19 h
Procedure: as §1, §2

[9] = tested on: P. aeruginosa ARC3514; assay: BLI potentiation MIC, P. aeruginosa ARC3514 (KPC-2, OprD−, AmpC); type: cell-based; settings: BLI fixed 4 ug/ml; incubation 19 h
Procedure: as §1, §2

[10] = tested on: K. pneumoniae NDM-506; assay: BLI potentiation MIC, K. pneumoniae NDM-506; type: cell-based; settings: BLI fixed 4 ug/ml; incubation 19 h
Procedure: as §1, §2

[11] = tested on: E. aerogenes K9911729; assay: MIC of strain used for extraction of enzymes, E. aerogenes K9911729 (CMY-10, TEM-1, SHV-12, AmpC (DQ478697)); type: cell-based; settings: BLI: 4 ug/mL
[12] = tested on: K. pneumoniae CL5761; assay: MIC of strain used for extraction of enzymes, K. pneumoniae CL5761 (KPC-3, TEM-216, SHV-5); type: cell-based; settings: BLI: 4 ug/mL
Procedure: as §1, §2

[13] = tested on: E. coli K0519020; assay: MIC of strain used for extraction of enzymes, E. coli K0519020 (CTX-M-15, TEM-1, OXA-1, AmpC (NC_000913)); type: cell-based; settings: BLI: 4 ug/mL
[14] = tested on: E. coli ECO200; assay: MIC of strain used for extraction of enzymes, E. coli ECO200 (NDM-1, TEM-1, CTX-M-15, EC (AmpC), OXA-2 type); type: cell-based
[15] = molecular target: T1, CMY-10 β-lactamase (class C) (Klebsiella aerogenes, UniProt Q99QC1); assay: Inhibitory activity against β-lactamases (nitrocefin), CMY-10; type: biochemical
T1 construct: MICs of bacterial strains used for extraction of enzymes; endogenous in cells
Procedure: More diluted stocks were prepared as necessary. Enzyme activity was determined by monitoring the change of absorbance at 492 nm using the characteristic molecular extinction coefficient (Δε492=17,400 M^−1 cm^−1) of nitrocefin by a Shimazu UV-1650PC spectrophotometer. The nitrocefin was purchased from OXOID. Kinetic measurements were run at 30° C. in 10 mM MES[2-(N-morpholino)ethanesulfonic acid]buffer (pH 6.8) or 10 mM MES[2-(N-morpholino)ethanesulfonic acid] buffer (pH 6.8), […] BSA and 50 mM sodium bicarbonate. Reactions were performed in 2.5 mL cuvettes with 100 μM nitrocefin and initiated by adding 1.5 nM to 2.5 nM enzyme. The first 180 s of each reaction was used to measure initial rates. Data were evaluated using Microsoft Excel. Concentration dependent inhibition of enzyme was measured using different concentrations of inhibitors resulting from two-fold dilution series. Reaction progress at every concentration of inhibitor was measured in triplicates. IC50 values were calculated using 4-parameter log fits using XL Fit curve fitting software (www.idbs.com) for Excel using the following equation:
[formula] where y is the remaining enzyme activity (in %) and x is the corresponding concentration. he fitted IC50 parameter is the relative IC50, and is defined as the concentration giving a response half way between the fitted top (B) and bottom (A) of the curve.

[16] = tested on: E. coli TOPDXA048; assay: MIC of strain used for extraction of enzymes, E. coli TOPDXA048 (OXA-48, TEM-116, AmpC (NC_000913)); type: cell-based

T1 sequence (Q99QC1 24-382): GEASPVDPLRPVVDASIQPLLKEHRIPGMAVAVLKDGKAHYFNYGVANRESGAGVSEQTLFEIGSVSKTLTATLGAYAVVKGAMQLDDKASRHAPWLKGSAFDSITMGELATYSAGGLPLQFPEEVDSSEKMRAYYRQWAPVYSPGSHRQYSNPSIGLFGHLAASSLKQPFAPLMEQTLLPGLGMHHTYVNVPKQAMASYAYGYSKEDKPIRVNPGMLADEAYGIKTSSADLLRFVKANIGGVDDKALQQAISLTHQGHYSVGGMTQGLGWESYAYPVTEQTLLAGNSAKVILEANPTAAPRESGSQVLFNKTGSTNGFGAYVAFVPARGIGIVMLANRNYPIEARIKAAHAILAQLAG

NCC1CC([C@@H]2CC[C@@H]3CN2C(=O)N3OS(=O)(=O)O)=NO1 (stereo partly drawn) [Example 2, [(2S,5R)-2-[5-(aminomethyl)-4,5-dihydroisoxazol-3-yl]-7-oxo-1,6-diazabicyclo[3.2.1]octan-6-yl] hydrogen sulfate]
AUC(0-inf) [1]: 34500 ± 3610 ng·h/mL
Cmax [1]: 74.4 ± 3.44 µg/mL
Tmax [1]: 4.8 min
clearance [1]: 24.3 mL/min/kg
half-life [1]: 88.2 ± 9.6 min
Vd [1]: 1.57 ± 0.12 L/kg
AUCnorm [1]: 0.69 ± 0.07 kg·h/L
Cmax, norm [1]: 1.49 ± 0.07 kg/L

CC(C)(O/N=C(\C(=O)N[C@@H]1C(=O)N2C(C(=O)[O-])=C(C[n+]3ccccc3)CS[C@H]12)c1csc(N)n1)C(=O)O [Ceftazidime]
MIC ([2]; Pseudomonas aeruginosa, ATCC27853, 19 h, read-out: MIC of Ceftazidime alone, no BLI): 2 µg/mL
MIC [3]: > 64 µg/mL
MIC [4]: 32 µg/mL
MIC [5]: > 64 µg/mL
MIC ([6]; Klebsiella pneumoniae, 3784, 19 h, read-out: MIC of Ceftazidime alone, no BLI): > 64 µg/mL

NCC1(CO)CC([C@@H]2CC[C@@H]3CN2C(=O)N3OS(=O)(=O)O)=NO1 (stereo partly drawn) [Example 13, [(2S,5R)-2-[5-(aminomethyl)-5-(hydroxymethyl)-4H-isoxazol-3-yl]-7-oxo-1,6-diazabicyclo[3.2.1]octan-6-yl] hydrogen sulfate]
MIC of Meropenem with BLI [7]: 0.0625 µg/mL
MIC of Meropenem with BLI [2]: 2 µg/mL
MIC of Meropenem with BLI [6]: 0.25 µg/mL
MIC of Meropenem with BLI [8]: 32 µg/mL
MIC of Meropenem with BLI [9]: >64 µg/mL
MIC of Meropenem with BLI [10]: >64 µg/mL

NC(=O)[C@@H]1CC[C@@H]2CN1C(=O)N2OS(=O)(=O)O [Avibactam]
MIC of Meropenem with BLI [11]: 0.5 µg/mL
MIC ([11]; Klebsiella aerogenes, K9911729, read-out: MIC of LCB10-0200 with BLI): 2 µg/mL
MIC of Meropenem with BLI [12]: 1 µg/mL
MIC ([12]; Klebsiella pneumoniae, CL5761, read-out: MIC of LCB10-0200 with BLI): 16 µg/mL
MIC of Meropenem with BLI [13]: 0.25 µg/mL
MIC ([13]; Escherichia coli, K0519020, read-out: MIC of LCB10-0200 with BLI): 0.25 µg/mL
MIC of Meropenem with BLI ([14]; BLI: 4 ug/mL): >64 µg/mL
MIC ([14]; Escherichia coli, ECO200, read-out: MIC of LCB10-0200 with BLI): > 64 µg/mL
IC50 [15]: 13 nM
MIC of Meropenem with BLI ([16]; BLI: 4 ug/mL): 0.5 µg/mL
MIC ([16]; Escherichia coli, TOPDXA048, read-out: MIC of LCB10-0200 with BLI): 0.25 µg/mL

NCC1(CN)CC([C@@H]2CC[C@@H]3CN2C(=O)N3OS(=O)(=O)O)=NO1 [Example 5, [(2S,5R)-2-[5,5-bis(aminomethyl)-4H-isoxazol-3-yl]-7-oxo-1,6-diazabicyclo[3.2.1]octan-6-yl] hydrogen sulfate]
AUC(0-inf) [1]: 55300 ± 4160 ng·h/mL
Cmax [1]: 103 ± 9.93 µg/mL
Tmax [1]: 4.8 min
clearance [1]: 15.2 mL/min/kg
half-life [1]: 191 ± 93.6 min
Vd [1]: 2.23 ± 0.61 L/kg
AUCnorm [1]: 1.11 ± 0.08 kg·h/L
Cmax, norm [1]: 2.06 ± 0.20 kg/L

NC(=O)CN1CCC2(CC([C@@H]3CC[C@@H]4CN3C(=O)N4OS(=O)(=O)O)=NO2)C1 (stereo partly drawn) [Example 12, [(2S,5R)-2-[7-(2-amino-2-oxo-ethyl)-1-oxa-2,7-diazaspiro[4.4]non-2-en-3-yl]-7-oxo-1,6-diazabicyclo[3.2.1]octan-6-yl] hydrogen sulfate]
MIC of Meropenem with BLI [7]: 0.125 µg/mL
MIC of Meropenem with BLI [2]: 2 µg/mL
MIC of Meropenem with BLI [6]: 1 µg/mL
MIC of Meropenem with BLI [8]: 64 µg/mL
MIC of Meropenem with BLI [9]: >64 µg/mL
MIC of Meropenem with BLI [10]: >64 µg/mL

NCC1(C(N)=O)CC([C@@H]2CC[C@@H]3CN2C(=O)N3OS(=O)(=O)O)=NO1 (stereo partly drawn) [Example 14, [(2S,5R)-2-[5-(aminomethyl)-5-carbamoyl-4H-isoxazol-3-yl]-7-oxo-1,6-diazabicyclo[3.2.1]octan-6-yl] hydrogen sulfate]
MIC of Meropenem with BLI [7]: 0.0625 µg/mL
MIC of Meropenem with BLI [2]: 2 µg/mL
MIC of Meropenem with BLI [6]: 0.25 µg/mL
MIC of Meropenem with BLI [8]: 64 µg/mL
MIC of Meropenem with BLI [9]: >64 µg/mL
MIC of Meropenem with BLI [10]: >64 µg/mL
